Tests used:
VSMCs [1] = assay: Warfarin-induced oxidative stress in VSMCs, effect of vitamin K2 (DCFDA); format: cell-based
Method: It is known that the level of reactive oxygen species in cells can be measured by measuring the conversion of 2′,7′-dichlorofluorescein diacetate (DCFDA) to the fluorescent dye 2′,7′-dichlorofluorescein (DCF). The fluorescence generated by cells subjected to DCFDA is directly proportional to the amount of oxidized DCFDA to DCF.
This study was performed to determine if vitamin K2 (MK-7) reduces warfarin-induced oxidative stress. To perform the study, VSMCs (10,000 cells/well) were plated in a 96-well plate and left to adhere overnight. Next, cells were incubated for 24 hours with 100 μM warfarin. The next day, 20 μM DCFDA was added to the cells for 1 hour. The cells were then incubated for 5 hours with normal medium (baseline), vitamin K2 (MK-7), or warfarin. Fluorescence was measured and fluorescence intensity was normalized for cell count.

[2] = test system: whole-blood thrombogenicity; assay: T-TAS Total Thrombus-formation Analysis of whole blood from treated Sprague-Dawley rats; format: in vivo
Method: This experiment was conducted in order to evaluate the effects of vitamin K2 (MK-7) on the anticoagulant activity of the new oral anticoagulants (NOAC) rivaroxaban and dabigatran using the T-TAS Total Thrombus-formation Analysis System. The T-TAS Total Thrombus-formation Analysis System is a microchip-based flow chamber system capable of evaluating whole-blood thrombogenicity. It is a useful tool in monitoring the efficacy of anticoagulants on thrombus formation and predicting the risk of bleeding complications. To perform the study, 45 wild-type male Sprague-Dawley and 45 transgenic male Ren-2 rats [TGR(mREN-2)27] at the age of 10-11 weeks at the beginning of the treatment period were purchased from animal facility IKEM-CEM Institute of Clinical and Experimental Medicine (Prague, Czech Republic). All animals in the experiment were housed in individually ventilated cages (2-3 rats per cage) and kept in the animal rooms of JCET at a relative humidity of 55±10%, a temperature of 22±2° C., and a light cycle of 7 AM to 7 PM. The rats had free access to food and water. After delivery, animals were randomly divided into 10 experimental groups (5 or 10 rats per group), as indicated below in Table 1. Four days before the start of the treatment, the first part of animals' body weight and food intake was measured in selected representative three cages (rats n=9) to calculate the appropriate amount of tested compounds required for addition to the diet to obtain the dosing indicated in Table 1. It was estimated that food intake was approximately 30 g of chow per rat per day. The animals were fed for two weeks with AIN-93G diet supplemented with rivaroxaban or dabigatran with/without Vitamin K2 (MK-7), as indicated in Table 1. The animals were then anesthetized in order to draw blood samples for further analysis. The body mass of the rats was measured at the beginning and at the end of treatment. At the beginning and at the end of treatment, the food intake per day was measured in representative group of animals to monitor the daily dosing of tested compounds (per kg of body mass). The thrombus formation in vitro was measured in whole blood using a microchip-based flow chamber system according to manufacturers' protocol (Total Thrombus-formation Analyser System, T-TAS; Fujimori Kogyo Co., Ltd., Tokyo, Japan). For the analysis, citrated whole blood (480 μl) was mixed with 20 μl of 300 mM CaCl2 solution containing 1.25 mg/ml CTI (Corn Trypsin Inhibitor). […] The obtained flow pressure pattern for each sample was used to analyze thrombus formation based on the following estimated parameters: […]

VSMCs [3] = assay: ATP increase in VSMCs, 48 hours, with CoCl2 arm (luminescence); format: cell-based
Method: This study was performed to further investigate the origin of ATP production that is influenced by vitamin K2 (MK-7). To perform this study, VSCMs (5000 cells/well) were plated in 96-well plates and left to adhere overnight. Next, cells were incubated for 48 hours with either vehicle, CoCl2 (100 μM), vitamin K2 (MK-7) (10 μM), or UQ10 (10 μM). Hoechst was added to correct for cell number (1 μg/mL). Next, ATP was measured using mammalian lysis buffer for 5 minutes, after which 50 μL ATP substrate solution was added to the wells and incubated for 10 minutes in a dark environment. Finally, medium was transferred to a white plate to measure luminescence.

[4] = Thrombin Time (TT), Coag-Chrom 3003, treated Sprague-Dawley rats; format: in vivo; conditions: added to dabigatran and to rivaroxaban
Method: To perform the study, 45 wild-type male Sprague-Dawley and 45 transgenic male Ren-2 rats [TGR(mREN-2)27] at the age of 10-11 weeks at the beginning of the treatment period were purchased from animal facility IKEM-CEM Institute of Clinical and Experimental Medicine (Prague, Czech Republic). All animals in the experiment were housed in individually ventilated cages (2-3 rats per cage) and kept in the animal rooms of JCET at a relative humidity of 55±10%, a temperature of 22±2° C., and a light cycle of 7 AM to 7 PM. The rats had free access to food and water. After delivery, animals were randomly divided into 10 experimental groups (5 or 10 rats per group), as indicated below in Table 1.
Four days before the start of the treatment, the first part of animals' body weight and food intake was measured in selected representative three cages (rats n=9) to calculate the appropriate amount of tested compounds required for addition to the diet to obtain the dosing indicated in Table 1. It was estimated that food intake was approximately 30 g of chow per rat per day. […] The body mass of the rats was measured at the beginning and at the end of treatment.
Prothrombin Time (PT), activated Partial Thromboplastin Time (aPTT), Thrombin Time (TT) and fibrinogen levels (Clauss method) were determined according to the manufacturer's instructions using Coag-Chrom 3003 apparatus (Bio-ksel, Grudziadz, Poland). […]

Structure (SMILES): CC(C)=CCC/C(C)=C/CC/C(C)=C/CC/C(C)=C/CC/C(C)=C/CC/C(C)=C/CC/C(C)=C/CC1=C(C)C(=O)c2ccccc2C1=O [vitamin K2 (MK-7)]
- normal oxidative stress (VSMCs [1]; 5 hours incubation, no warfarin): reduced not only normal oxidative stress
- warfarin-induced oxidative stress (VSMCs [1]; 24 hours 100 μM warfarin, then 5 hours incubation): counteracted the warfarin-induced oxidative stress
- increase of occlusion Time (OT) by addition of vitamin K2 (MK-7) ([2]; added to dabigatran and to rivaroxaban): 5-7%
- formation of a clot (AUC) ([2]; vitamin K2 (MK-7) added to dabigatran or rivaroxaban): did not prevent the formation of a clot
- ATP levels compared to CoCl2 (VSMCs [3]; 10 μM vs CoCl2 100 μM): significant higher ATP levels
- ATP production compared to vehicle (VSMCs [3]; CoCl2 100 μM, vitamin K2 (MK-7) 10 μM): increased ATP production slightly, though significant
- increase of thrombin time by addition of vitamin K2 (MK-7) [4]: 5-7%

Source: patent publication US20200289521A1, “USE OF VITAMIN K IN COMBINATION WITH ANTICOAGULANTS” (KAYDENCE PHARMA AS, priority 2019, published 2020)
